For data set [1] the following is noted: cited from earlier work.
The conditions of data set [2]: oral and iontophoretic patch administration, with oxadiazole muscarinic agonists; cited from earlier work.
Data set [3] relates to patients with Alzheimer disease. The settings on record: cited from earlier work.
Data set [4] deals with Male Swiss mice. In words: T-maze continuous alternation task (T-CAT) in mice. The data set is classed as in vivo. The text has this:
Evaluation of Cognition with Oxybutynin and Xanomeline in the T-maze Alternation Task in Mice The T-maze continuous alternation task (T-CAT) is useful as model for studying compounds with cognitive enhancing properties. The T-maze consists of 2 choice arms and 1 start arm mounted to a square center. Manual doors are provided to close specific arms during the force choice alternation task. Male Swiss mice (4-6 weeks old), N=10 per treatment group were used, and were pre-treated with: • Oxybutynin at the dose that blocked fecal pellet excretion in Study 2 of Example 1. […] Mice were randomly assigned to one of the different experimental treatment groups. Each animal was identified by its group name, cage number, series (day) of experiment, and number (1 to 10) written with permanent ink on the tail. The T-maze apparatus is made of gray Plexiglas with a main stem (55 cm long×10 cm wide×20 cm high) and two arms (30 cm long×10 cm wide×20 cm high) positioned at 90 degree angle relative to the main stem. A start box (15 cm long×10 cm wide) is separated from the main stem by a guillotine door. Horizontal doors are also provided to close specific arms during the force choice alternation task.
The experimental protocol consisted of one single session, which started with 1 “forced-choice” trial, followed by 14 “free-choice” trials. In the first “forced-choice” trial, animals were confined for 5 seconds to the start arm and then were released while either the left or the right goal arm was blocked by the horizontal door. Animals then negotiated the maze, eventually entering the open goal arm, and returned to the start position. […]
The apparatus was cleaned between each animal using 40% ethanol. […] The percentage of alternation over the 14 free-choice trials was determined for each mouse and was used as an index of working memory performance. […] The drug-induced improvement of memory was calculated by setting the respective response of the saline/vehicle as 100% and that of the test group as 0% reversion. […]

The test system of data set [5] is Male Swiss mice. In words: Dose-response to xanomeline in a mouse model of diarrhea (fecal pellet count). The data set is classed as in vivo. The settings on record: xanomeline i.p. 0.3 to 30 mg/kg. The text has this: Male Swiss mice (4-6 weeks old), N=10 per treatment group were used, and treated intra-peritoneally (i.p.) with either vehicle (vehicle group) or increasing doses of xanomeline, a representative muscarinic agonist. Mice were randomly assigned to one of two experimental groups (vehicle; or increasing doses of xanomeline). Each animal was identified by its group name, cage number, series (day) of experiment, and number (1 to 10) written with permanent ink on the tail. Mice were placed individually in cages without any bedding materials. During the experiment the number of fecal pellets were counted at different time-points, starting one hour before the time of the administration of the test compound (TO), as outlined below: • T-1 h to T0: counting of the accumulated fecal pellets excreted. • T0: administration of the test compound, • T0 to T+2 h: counting of the accumulated fecal pellets excreted, • T+2 h to T+4 h: counting of the accumulated fecal pellets excreted, The total number of fecal pellets for each mouse was counted over time. An analysis of variance (ANOVA) was performed on the results. Fisher's Protected Least Significant Difference was used for pairwise comparisons; p values <0.05 were considered significant. Grubbs' test (http (hypertext transfer protocol) www at graphpad.com/quickcalcs/Grubbs1.cfm) was used to detect outliers for each parameter in each experimental group.

Data set [6] concerns rats and monkeys. The settings on record: rats and monkeys (Schwarz 1999); cited from earlier work.
Data set [7] has as its system Male Swiss mice. In words: Antagonism of xanomeline-induced diarrhea in mice by oxybutynin (fecal pellet count). It counts as in vivo. The settings on record: oxybutynin i.p. 0.3 to 30 mg/kg, 30 minutes before xanomeline 30 mg/kg. The protocol:
Male Swiss mice (4-6 weeks old), N=10 per treatment group were used. Animals were pretreated with i.p. oxybutynin (a representative peripheral muscarinic receptor antagonist) or vehicle; 30 minutes later animals were treated with xanomeline at a dose of 30 mg/kg that caused diarrhea (as determined in Experiment 1). The dose of oxybutynin ordinarily ranged from 0.3 to 30 mg/kg. Mice were placed individually in cages without any bedding materials. During the experiment the number of fecal pellets was counted at different time-points as outlined below: • T-1h to T0: counting of the accumulated fecal pellets excreted, • T0: administration of oxybutinin. • T30 min: administration of vehicle or xanomeline. • T 30 min to T 2.5 h: counting of accumulated fecal pellets excreted. • T+2.5 h to T+4.5 h: counting of accumulated fecal pellets excreted. The total number of fecal pellets for each mouse was counted over time. An analysis of variance (ANOVA) was performed on the results. Fisher's Protected Least Significant Difference was used for pairwise comparisons. The p value ≦0.05 were considered significant. Grubbs' test (http (hypertext transfer protocol) www at graphpad.com/quickcalcs/Grubbs1.cfm) was used to detect outliers for each parameter in each experimental group.

These results are taken from patent US20180050018A1, “PERIPHERAL-ANTICHOLINERGIC MUSCARINIC AGONIST COMBINATION” (Chase Pharmaceuticals Corporation, priority 2015, published 2018).

Each structure is given as a SMILES string.

Take `O=C(O[C@H]1C[C@H]2CC[C@@H](C1)[N+]21CCCC1)C(O)(c1ccccc1)c1ccccc1` [trospium chloride, Azoniaspiro [3β-benziloyloxy-(1α,5α)-nortropane-8,1′-pyrrolidine] chloride]: the average plasma half-life entry in data set [1] (absorbed amount) was “about 18 hours”.

Turning to `NC(=O)C(c1ccccc1)(c1ccccc1)[C@@H]1CCN(CCc2ccc3c(c2)CCO3)C1` [darifenacin], the “effectiveness relative to the other muscarinic antagonists” value in data set [2] is on record as “less effective than the other muscarinic antagonists”.

`O=C(O[C@H]1CN2CCC1CC2)N1CCc2ccccc2[C@@H]1c1ccccc1` [solifenacin succinate, (1S)-(3R)-1-azabicyclo [2.2.2] oct-3-yl 3,4-dihydro-1-phenyl-2(1H)-iso-quinolinecarboxylate]: the “half-life (in words)” value in data set [1] (in vivo) is given as “long half-life”.

Take `CCCCCCOc1nsnc1C1=CCCN(C)C1` [xanomeline, 3-(4-hexyloxy-1,2,5-thiadiazol-3-yl)-1-methyl-5,6-dihydro-2H-pyridine]: the “cognitive and behavioral symptoms compared to placebo” value in data set [3] (6-month trial in Alzheimer disease patients (Bodick et al, 1997)) is “significantly improve cognitive and behavioral symptoms of Alzheimer disease”. Moreover, the “discontinuation rate due to side effects” value in data set [3] (Alzheimer's patient population (Mirza et al. 2003)) is given as “higher than 50%”. The side effects entry in data set [3] (bradycardia, gastro-intestinal distress, excessive salivation, sweating, Alzheimer disease patients) is reported as “dose-dependent unacceptable side effects”. The “ability to perform the T-maze test at the higher dose” value in data set [4] (i.p. xanomeline, higher dose (dose that caused diarrhea)) was “animals were too sick to perform the test”. In data set [4] (i.p. xanomeline, mice), the “performance in the T-maze (percentage of alternation, working memory)” value is on record as “dose-dependent increase in performance in the T-maze”. Also, the “diarrhea (number of fecal pellets excreted)” value in data set [5] is “dose-dependently causes diarrhea”.

Take `CO/N=C/C1=CCCN(C)C1` [milameline, (E)-N-methoxy-1-(1-methyl-1,2,5,6-tetrahydropyridin-3-yl)methanimine]: the “doses producing central cholinergic action relative to doses stimulating peripheral cholinergic receptors” value in data set [6] was “doses slightly lower than those stimulating peripheral cholinergic receptors”.

As for `CCN(CC)CC#CCOC(=O)C(O)(c1ccccc1)C1CCCCC1` (stereo not shown) [oxybutynin], in data set [2], the “effectiveness relative to the other muscarinic antagonists” value is listed as “less effective than the other muscarinic antagonists”. In data set [4] (i.p. oxybutynin pretreatment 30 minutes before xanomeline), the “ability to perform the T-maze test after pretreatment” value is recorded as “restored the animals' ability to perform the T-maze test”. Also, the “antagonism of xanomeline-induced diarrhea” value in data set [7] is recorded as “dose-dependently antagonized the diarrhea induced by xanomeline”.
